In patent US20170266182A1, “Treatment of IgG-Immune Complex-Mediated Organ Damage” (The Brigham and Women's Hospital, Inc., priority 2014, published 2017):

How the values were obtained:
FcγRIIA [1] = test: Immobilized immune complex (IC)-induced ROS generation in FcγRIIA+/γ-/- mouse bone marrow neutrophils (high-throughput screen); format: cell-based; details: for ROS RLU ratio: compound at 1.1 μM, mouse BMN ROS induced by immobilized IC
Experimental: Screen of 8,483 compounds was done in collaboration with the Institute of Chemistry and Cell Biology Screening facility at Harvard Medical School (ICCB/Longwood). Each compound was dissolved in DMSO at a concentration of […]. For the primary screen, wells were coated with immune complexes as follows: 0.1 mg/mL poly-L-lysine (Sigma) followed by 2.5% glutaraldehyde were dispensed onto 384-well format black plate (Corning), and the plate was washed once with DDW and twice with PBS, incubated with 100 μL 1 mg/ml bovine serum albumin (BSA) followed by 100 μL 40 μg/mL rabbit anti-BSA antibody to generate in situ immune complexes (IC). Mature murine neutrophils isolated from the bone marrow of FcγRIIA+/γ^-/- mice as previously described, were suspended in 100 uM homovanillic acid/5 U/ml peroxidase IV (Sigma)/1 mM EDTA/HBSS (Thermo) assay solution (pH 7.5) and 3×10^4 cells in 30 μL were loaded per well into a 384-well format plate using a Wellmate automated dispenser (Thermo Scientific). Immediately after dispensing cells, ICCB library compounds dissolved in 33 nL DMSO were dispensed into wells using a Compound Transfer Robot (Epson). The plates were placed in a humidified incubator at 37 C for 60 mins and then fluorescence levels were read out at Ex/Em 321/421 nm with Envision2 (PerkinElmer). PP2 (Sigma), a Src inhibitor known to down-regulate FcγRIIA signal, and DMSO were used as positive and negative control, respectively. All the experiments were performed in duplicate.
An automated high-throughput drug screen in primary neutrophils from mice expressing FcγRIIA on neutrophils and lacking all their endogenous activating murine FcγRs (FcγRIIA^+/γ^-/-) was established to identify compounds that inhibit the activity of FcγRIIA. Immune complex (IC)-induced reactive oxygen species (ROS) generation served as our read-out of FcγRIIA activity. An appropriate positive (PP2, an inhibitor of the FcγR proximal Src-family kinase) and negative (DMSO, vehicle) control was included in the assay. The screen of 8,483 compounds, used at 10 μM in DMSO, yielded 84 hits (1% hit rate) that were defined as those that have an inhibitory potential that is ≧95% of PP2 (FIG. 1A). Of the 30 compounds cherry picked for a secondary screen, ten compounds were identified as having an ability to inhibit neutrophil FcyRIIA induced ROS generation at even lower concentrations (i.e., 1.1 μM or less) (Table 1).

neutrophils = test: Cell viability by Annexin V and propium iodide; format: cell-based; details: range of concentrations
[2] = mice, gavage; cited from earlier work
[3] = test system: FcγRIIA+/γ-/-/Mac-1-/- mice; test: Human lupus serum induced kidney injury model; format: in vivo, mouse
Experimental: Human serum samples were obtained from the Lupus Clinic at the Beth Israel Deaconess Medical Center from patients with SLE diagnosed according to the classification criteria of the American College of Rheumatology as previously described^13. Informed consent was obtained from all patients and healthy donors under a Beth Israel Deaconess Medical Center Institutional Review Board-approved protocol. FcγRIIA+/γ^-/-/Mac1-mice were injected s.c. in both flanks with 2.5 μg human IgG (Jackson ImmunoResearch Laboratories) in CFA (Thermo Scientific and Difco) on day-3. On days 0 and 2, 200 μl sterile serum was injected i.v. The mice were given an oral administration of Bosutinib (150 mg/kg) or a vehicle solution every 24 hrs from day 0 to 14. Spot urine samples and peripheral blood were collected at indicated time points after human serum injection. Both kidneys from euthanized mice were harvested for histological analysis at day 10 or 14. […]

FcγRIIA [4] = test: FcγRIIA cross-linking induced ROS generation in FcγRIIA+/γ-/- mouse BMNs (luminol); format: cell-based; details: 100 nM, FIG. 4A
Experimental: 10^6 BMNs were suspended in PBS without Ca^2+/Mg^2+, and then incubated with 10 μg/ml mouse anti-hFcγRIIa (clone IV.3; StemCell Technologies) on ice for 30 minutes. After washing in PBS, cells were incubated with or without 500 ng/ml mGM-CSF (BioLegend) for 30 minutes. After pretreated with Bosutinib at indicated concentrations or DMSO at 37 C for 30 minutes, luminol (50 μM) in PBS with Ca^2+/Mg^2+ was added, followed immediately by the addition of goat anti-mouse F(ab′)2 (36 μg/ml; Jackson ImmunoResearch). ROS generation (expressed in relative light units) was continuously monitored over time using a 6-channel bioluminat LB-953 luminometer (Berthold). For human PMNs, 5×10^5 cells were analyzed without GM-CSF pretreatment.

Cc1n[nH]c2ccc(-c3cncc(OC[C@@H](N)Cc4c[nH]c5ccccc45)c3)cc12 [A-443654]
ROS RLU ratio (FcγRIIA [1]): 0.266

COc1cc(Nc2c(C#N)cnc3cc(OCCCN4CCN(C)CC4)c(OC)cc23)c(Cl)cc1Cl [Bosutinib]
ROS RLU ratio (FcγRIIA [1]): 0.033 | IC50 (FcγRIIA [1]; mouse BMNs, FIG. 1C): ~0.05 µM | Cell viability (neutrophils): did not affect cell viability | Time of peak blood concentration [2]: 2 to 4 h | Total leukocyte and neutrophil counts versus vehicle ([3]; hemocytometric analysis, day 14): comparable | Hb ([3]; peripheral blood, day 14, AVE): 7.98 g/dL | Neu % ([3]; peripheral blood, day 14, AVE): 25.64% | Neu total ([3]; peripheral blood, day 14, AVE): 0.7506 K/ul | Plt total ([3]; peripheral blood, day 14, AVE): 949.8 K/ul | RBC ([3]; peripheral blood, day 14, AVE): 7.98 M/ul | WBC total ([3]; peripheral blood, day 14, AVE): 2.656 K/ul

CN(C)CCCn1cc(C2=C(c3c[nH]c4ccccc34)C(=O)NC2=O)c2ccccc21 [GF109203X]
ROS RLU ratio (FcγRIIA [1]): 0.338

Cc1cn(-c2cc(NC(=O)c3ccc(C)c(Nc4nccc(-c5cccnc5)n4)c3)cc(C(F)(F)F)c2)cn1 [Nilotinib]
Neutrophil ROS generation induced by FcγRIIA cross linking (FcγRIIA [4]): reduced | Potency compared to Bosutinib in FcγRIIA cross linking ROS (FcγRIIA [4]): lower

CN(c1ccccc1CNc1nc(Nc2ccc3c(c2)CC(=O)N3)ncc1C(F)(F)F)S(C)(=O)=O [PF431396]
ROS RLU ratio (FcγRIIA [1]): 0.301

Cn1cc(C2=C(c3cn(CCCSC(=N)N)c4ccccc34)C(=O)NC2=O)c2ccccc21 [Ro 31-8220]
ROS RLU ratio (FcγRIIA [1]): 0.778
